Results on one compound are retold here after patent US11633505B2, “Nuclear magnetic resonance diagnostic agent, and method for detecting or diagnosing state of cell, tissue or organ in subject using same” (National University Corporation Kumamoto University, priority 2012, dated 2023).

The structures appear in SMILES notation.

This assay relates to Brain tumor (9 L gliosarcoma). The experiment in a line: MRI (7T, 2D-RARE) T1/T2 measurement of excised subcutaneous tumor after ALA administration. The note with it: for Average T1 value / Average T2 value: ROI in excised tumor portion, ALA 100 mg/kg, 3 hours after administration, 7T-MRI, mean ± standard deviation.

Turning to `NCC(=O)CCC(=O)O` [ALA, 5-aminolevulinic acid], the “Average T1 value” is, setting by setting: (First average) 2004 ± 73 ms; (Second average) 2188 ± 210 ms. The “Average T2 value” by setting is: (First average) 146 ± 22 ms; (Second average) 123 ± 5.7 ms. Besides, the “signal ratio (ALA administration group/control group) of T2 value” was “approximately 1.4 times” (first measurement) and “approximately 1.3 times” (second measurement).
